For 2 compounds, IC50 results are on record in patent US20110003878A1, “NOVEL DERIVATIVES OF PHTHALIMIDE AS HISTONE DEACETYLASE INHIBITORS” (UNIVERSIDAD DE GRANADA, priority 2006, published 2011).

By IC50 is commonly meant the concentration needed to halve the response being measured. A lower IC50 goes with greater potency.

In this experiment the test system is HDAC (HeLa nuclear extract, rich in HDAC activity). The experiment is described as follows: HDAC AK-501 colorimetric inhibition kit (Color de Lys substrate, HeLa nuclear extract). It counts as biochemical, human. As to conditions: Color de Lys substrate 0.2 mM final, 20 minutes at 37° C., reading at 405 nm, 5 concentrations (0.1-1.0 μM). The procedure:
The process of the assay was carried out in two steps. In the first step, the Color de Lys® substrate, containing an acetylated lysine group, was incubated with a sample of HeLa (human cervical cancer cell line) nuclear extract, rich in HDAC activity. […] There is a linear correlation between the absorption and the deacetylation of lysine within instrumental limits. The operating procedure was the following: • 1. […] The Hela extract was added, except to the enzyme-free control. • 3. The plate and the Color de Lys® substrate were thermostatted at 37° C. • 4. The reactions were started adding the 0.4 mM substrate (final concentration of the substrate 0.2 mM) in each well and it was stirred. • 5. A reaction time of 20 minutes at 37° C. was allowed. • 6. The Color de Lys® developer, prepared approximately 30 minutes before its use, was added (the developer was used diluted 20 times with an amount of TSA resulting in a final concentration of 1 μM in the assay). • It was allowed to react for 15 minutes at 37° C. • 7.

The compound `Cc1ccc2c(c1)C(=O)N(CCCCCC(=O)NO)C2=O` [MTC-141, 6-(5-methyl-1,3-dioxoisoindol-2-yl)-N-hydroxyhexanamide] returned an IC50 of 180 nM.

Compound `O=C(CCCCCN1C(=O)c2ccc([N+](=O)[O-])cc2C1=O)NO` [MTC-127, 6-(5-nitro-1,3-dioxo-isoindol-2-yl)-N-hydroxyhexanamide] came in with an IC50 of 350 nM.
